Measured values: publication PMC2975748 (Journal of molecular and cellular cardiology, 2010)

Biological target: cardiac troponin C (cTnC), regulatory N-domain (cNTnC) (Homo sapiens, UniProt P19429+P63316)
Assay: 1H, […]-HSQC NMR titration
Assay type: binding

cardiac troponin C (cTnC), regulatory N-domain (cNTnC), sequence (P63316 1-89): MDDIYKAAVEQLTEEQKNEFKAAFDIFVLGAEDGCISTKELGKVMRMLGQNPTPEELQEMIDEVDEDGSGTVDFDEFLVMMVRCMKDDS
cardiac troponin C (cTnC), regulatory N-domain (cNTnC), sequence (P19429 145-164): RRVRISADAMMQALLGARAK

- Kd: 2820 ± 480 µM
SMILES: O=C(O)Cc1ccc(-c2ccc(F)cc2F)cc1 [dfbp, 2’ ,4’-difluoro(1,1’-biphenyl)-4-yl acetic acid]
